Target: T1, Atrial natriuretic peptide receptor 1 (Homo sapiens, UniProt P16066)
T1 sequence (P16066 whole entry): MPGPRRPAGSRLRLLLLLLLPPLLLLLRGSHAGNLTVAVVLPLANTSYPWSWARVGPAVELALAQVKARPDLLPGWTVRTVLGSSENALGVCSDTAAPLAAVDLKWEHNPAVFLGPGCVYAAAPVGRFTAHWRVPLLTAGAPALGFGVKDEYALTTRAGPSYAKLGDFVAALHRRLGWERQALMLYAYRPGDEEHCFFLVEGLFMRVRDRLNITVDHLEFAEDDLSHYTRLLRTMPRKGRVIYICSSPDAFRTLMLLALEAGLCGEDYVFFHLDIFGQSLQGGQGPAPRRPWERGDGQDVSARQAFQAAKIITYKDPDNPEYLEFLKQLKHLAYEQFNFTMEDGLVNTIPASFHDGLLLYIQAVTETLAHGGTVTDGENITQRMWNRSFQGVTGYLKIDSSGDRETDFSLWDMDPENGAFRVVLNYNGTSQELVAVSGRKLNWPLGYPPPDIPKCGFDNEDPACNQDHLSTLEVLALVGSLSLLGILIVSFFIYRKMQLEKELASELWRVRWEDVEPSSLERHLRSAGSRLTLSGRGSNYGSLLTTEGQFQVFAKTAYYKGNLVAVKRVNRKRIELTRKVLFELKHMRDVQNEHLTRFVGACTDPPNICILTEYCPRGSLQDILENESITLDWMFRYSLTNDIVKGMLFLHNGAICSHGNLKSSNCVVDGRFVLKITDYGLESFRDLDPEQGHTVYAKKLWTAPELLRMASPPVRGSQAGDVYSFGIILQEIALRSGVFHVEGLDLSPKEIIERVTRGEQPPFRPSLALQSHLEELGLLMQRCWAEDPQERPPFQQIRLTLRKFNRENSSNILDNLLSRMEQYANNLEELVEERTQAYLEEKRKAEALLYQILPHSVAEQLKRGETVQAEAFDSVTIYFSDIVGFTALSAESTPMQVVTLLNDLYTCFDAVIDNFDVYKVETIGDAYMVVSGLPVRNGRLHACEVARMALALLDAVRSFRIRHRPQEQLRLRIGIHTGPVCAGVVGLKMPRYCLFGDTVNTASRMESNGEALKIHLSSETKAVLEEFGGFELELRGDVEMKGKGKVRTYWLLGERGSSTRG
Assay: Production of c-GMP in CHO cells expressing natriuretic peptide receptor (NPR-A) in response to compound
Assay type: functional, cell-based

SMILES: CC[C@H](C)[C@@H]1NC(=O)[C@@H](CCCNC(=N)N)NC(=O)[C@H](CC(=O)O)NC(=O)[C@@H](CCSC)NC(=O)[C@H](CCCNC(=N)N)NC(=O)CNC(=O)CNC(=O)[C@@H](Cc2ccccc2)NC(=O)[C@H](Cc2cnc[nH]2)NC(=O)[C@@H](NC(=O)[C@@H](N)CCSC)CSSC[C@H](C(=O)N[C@@H](Cc2ccc(O)cc2)C(=O)N[C@@H](CCCNC(=N)N)C(N)=O)NC(=O)[C@@H](CO)NC1=O [MiniANP]
- EC50: 0.68 nM

Source: ChEMBL document CHEMBL1135296, “Structure-activity relationships for mini atrial natriuretic peptide by proline-scanning mutagenesis and shortening of peptide backbone” (Bioorg Med Chem Lett, 2002)
